Data reported in US20220211692A1, “Modulators of the Cystic Fibrosis Transmembrane Conductance Regulator Protein and Methods of Use” (AbbVie Global Enterprises Ltd., priority 2021, published 2022).
Where two headings read alike, the source gives them in different places.

Tests used:
F508del/F508del CFTR = target: T1, F508del/F508del CFTR (Homo sapiens, UniProt P13569, DEL508-508); experiment: Trans-Epithelial Current Clamp (TECC) assay using primary human bronchial epithelial cells; assay type: cell-based; conditions: for Emax (% Dual): maximum percent activity relative to positive control (co-corrector 0.15 μM + potentiator 0.45 μM = 100%); for EC50: primary hBE cells F508del/F508del, test corrector with co-corrector and potentiator, 18-24 hours, equivalent CFTR current
T1 construct: cells isolated from CF patients with the homozygous mutation; endogenous in cells; host or cells: primary human bronchial epithelial (hBE) cells from CF patients homozygous for F508del
T1 sequence (P13569 with tags, fused parts or gaps DEL508-508): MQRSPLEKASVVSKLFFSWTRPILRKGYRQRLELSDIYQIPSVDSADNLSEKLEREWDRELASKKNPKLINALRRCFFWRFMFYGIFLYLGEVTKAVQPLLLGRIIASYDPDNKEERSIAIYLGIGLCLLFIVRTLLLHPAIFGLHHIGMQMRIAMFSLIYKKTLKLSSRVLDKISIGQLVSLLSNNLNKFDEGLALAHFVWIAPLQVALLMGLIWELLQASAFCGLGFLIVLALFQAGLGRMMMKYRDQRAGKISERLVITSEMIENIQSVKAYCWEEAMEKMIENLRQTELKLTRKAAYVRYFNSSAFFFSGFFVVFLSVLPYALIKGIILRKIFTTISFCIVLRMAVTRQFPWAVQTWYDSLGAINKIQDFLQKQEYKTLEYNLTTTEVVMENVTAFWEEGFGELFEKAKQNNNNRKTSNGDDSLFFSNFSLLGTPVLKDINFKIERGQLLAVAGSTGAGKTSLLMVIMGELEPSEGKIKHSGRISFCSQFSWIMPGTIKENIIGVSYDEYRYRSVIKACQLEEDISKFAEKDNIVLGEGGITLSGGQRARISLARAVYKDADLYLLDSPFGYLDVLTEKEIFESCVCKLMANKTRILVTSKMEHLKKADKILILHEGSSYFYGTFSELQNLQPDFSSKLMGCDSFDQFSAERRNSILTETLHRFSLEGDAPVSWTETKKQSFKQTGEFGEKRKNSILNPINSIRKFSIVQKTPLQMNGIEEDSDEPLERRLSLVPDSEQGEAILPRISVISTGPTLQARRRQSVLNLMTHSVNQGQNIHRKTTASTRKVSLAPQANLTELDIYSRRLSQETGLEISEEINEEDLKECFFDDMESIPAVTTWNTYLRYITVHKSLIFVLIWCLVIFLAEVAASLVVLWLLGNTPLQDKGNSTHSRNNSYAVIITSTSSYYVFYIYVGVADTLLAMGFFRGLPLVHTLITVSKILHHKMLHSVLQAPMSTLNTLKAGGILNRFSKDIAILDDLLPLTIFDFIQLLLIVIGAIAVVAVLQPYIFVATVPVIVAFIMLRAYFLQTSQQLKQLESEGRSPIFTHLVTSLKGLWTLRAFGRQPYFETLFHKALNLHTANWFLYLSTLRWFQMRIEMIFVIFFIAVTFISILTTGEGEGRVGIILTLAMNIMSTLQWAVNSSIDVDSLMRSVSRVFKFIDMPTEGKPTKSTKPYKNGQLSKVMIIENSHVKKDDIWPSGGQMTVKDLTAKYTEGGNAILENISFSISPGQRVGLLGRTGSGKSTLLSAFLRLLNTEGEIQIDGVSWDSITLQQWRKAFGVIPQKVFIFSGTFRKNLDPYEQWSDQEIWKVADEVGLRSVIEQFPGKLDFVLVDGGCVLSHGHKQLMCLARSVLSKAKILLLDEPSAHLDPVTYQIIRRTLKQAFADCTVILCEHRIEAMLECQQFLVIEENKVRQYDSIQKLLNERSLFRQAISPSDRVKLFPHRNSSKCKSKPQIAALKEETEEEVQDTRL
Excerpt: A cell-based assay was developed using the primary human bronchial epithelial cells (hBE cells) with F508del/F508del CFTR and other mutations.
Primary human bronchial epithelial (hBE) cells from CFTR patients with homozygous F508del/F508del mutation were expanded from 1×10^6 to 250×10^6 cells (Neuberger, T et al., 2011, Methods Mol Biol 741:39-54). For this purpose, cells isolated from CF patients with the homozygous mutation, procured from the CF center tissue procurement and cell culture core at the Marsico Lung Institute at UNC (Randell), the Cystic Fibrosis translational research center at McGill University (University), and Rosalind Franklin University Medical School (RFUMS) were seeded onto 24 well Corning (Cat #3378) filter plates that were coated with 3T3 conditioned media and grown at an air-liquid interface for 35 days using an Ultroser® G supplemented differentiation media. All the primary human bronchial epithelial cells were collected in accordance with institutional review board approval protocols. Apical surface mucus was removed 72 hours before the experiment by incubating the apical surface of the cells for 30 minutes with 3 mM dithiothreitol (DTT) prepared in Dulbecco's phosphate buffered saline (DPBS) with Ca^2+ and Mg^2+. This was followed with aspiration of the mucus from the apical surface along with DPBS. The apical surface was re-washed with phosphate buffered saline (PBS) incubated for 30 minutes followed with aspiration. These hBE cells were then incubated with the desired concentrations of the test C2 corrector compounds along with co-corrector, 4-[(2R,4R)-4-({[1-(2,2-difluoro-1,3-benzodioxol-5-yl)cyclopropyl]carbonyl}amino)-7-(difluoromethoxy)-3,4-dihydro-2H-chromen-2-yl]benzoic acid and potentiator, (5-{3-amino-5-[4-(trifluoromethoxy)benzene-1-sulfonyl]pyridin-2-yl}-1,3,4-oxadiazol-2-yl)methanol, for 18-24 hours at 37° C., 5% CO2. The desired concentrations of the correctors and potentiator compounds were prepared from the 10 mM stocks in differentiation media and were always applied on the basolateral side of the epithelial cells. We also used an assay format where a fixed concentration of potentiator was added chronically along with the corrector compounds. This chronic treatment with the potentiator helped eliminate any interaction that might happen with CFTR modulators (correctors and potentiators) and thereby determined the true efficacy of the modulator combinations reflective of clinical relevance.
The assay uses a Transepithelial Current Clamp (TECC) (Vu, C B et al., 2017; J Med Chem 60:458-473) instrument that can measure the functionality of the mutated channel by measuring the equivalent CFTR current (IEQ) generated by the polarized primary epithelial cells. We used a TECC-24 with a 24-channel electrode manifold allowing for the simultaneous measurement of the transepithelial voltage, VT, and transepithelial resistance, RT, under current clamp conditions, from 24 filters using a 24 well Costar filter plate. The design of the filters in the 24 well filter plates was exactly the same as the design of an individual Transwell filter used in the classical Ussing Chamber with a surface area of 0.33 cm^2. Each measured VT values were corrected for the electrode offset potential measured using buffer alone in a separate plate, and each measured RT values were then corrected for the combined solution series and empty filter resistances. The corrected VT and RT values were then used to calculate the equivalent current, IEQ using Ohm's law (IEQ=VT/RT). The area under the curve (AUC) for the time period between the forskolin peak IEQ response and at the time of bumetanide addition was also calculated using a one-third trapezoid method, in addition to calculating the IEQ. The assay was run in a 24-well format and all 24-wells were measured at the same time point giving a higher throughput for this assay. […]

F508delCFTR = target: T2, F508delCFTR (Homo sapiens, UniProt P13569, DEL508-508); experiment: Cell Surface Expression-Horse Radish Peroxidase (CSE-HRP) assay in CFBE41o-F508delCFTR-HRP cells; assay type: cell-based; conditions: for EC50: CFBE41o-F508delCFTR-HRP cells, 18-24 hours at 33° C.; for Maximum % activity (with co-corrector) / Emax: normalized to on-plate positive control; for Emax: read-out: Maximum % activity (without co-corrector)
T2 construct: expressed in transfected cells; host or cells: CFBE41o- human lung derived epithelial cell line, doxycycline-induced expression
T2 sequence (P13569 with tags, fused parts or gaps DEL508-508): as above
Description: A cellular assay for measuring the F508delCFTR cell surface expression after correction with test compounds either without or with a co-corrector (2 μM of 3-[(2R,4R)-4-({[1-(2,2-difluoro-1,3-benzodioxol-5-yl)cyclopropyl]carbonyl}amino)-7-methoxy-3,4-dihydro-2H-chromen-2-yl]benzoic acid), was developed in human lung derived epithelial cell line (CFBE41o-) (Veit G et al, (2012) Mol Biol Cell. 23(21): 4188-4202). The development was achieved by expressing the F508delCFTR mutation along with a horseradish peroxidase (HRP) in the fourth exofacial loop, and then measuring the HRP activity using luminescence readout from these cells, CFBE41o-F508delCFTR-HIRP, that were incubated overnight with the test corrector compounds, either without or with the co-corrector. For this primary assay, the CFBE41o-F508delCFTR-HRP cells were plated in 384-well plates (Greiner Bio-one; Cat 781080) at 4,000 cells/well along with 0.5 μg/mL doxycycline to induce the F508delCFTR-HRP expression and further incubated at 37° C., […] for 68-72 hours. The test compounds were then added either without or with a co-corrector at the required concentrations and further incubated for 18-24 hours at 33° C. The highest concentration tested was 20 μM or 30 μM (GI-1 to GIII-36) with an 8-point concentration response curve using a 3-fold dilution in both the test compound without or with the co-corrector. Three replicate plates were run to determine one EC50. All plates contained negative controls (dimethyl sulfoxide, DMSO) and positive control (2 μM or 3 μM (GI-1 to GIII-36) of 3-[(2R,4R)-4-({[1-(2,2-difluoro-1,3-benzodioxol-5-yl)cyclopropyl]carbonyl}amino)-7-methoxy-3,4-dihydro-2H-chromen-2-yl]benzoic acid) as well as on-plate concentration response of the positive control. Post incubation, the plates were washed 5× times with Dulbecco's phosphate buffered saline (DPBS), followed by the addition of the HRP substrate, luminol (50 μL), and measuring the HRP activity using luminescence readout on EnVision® Multilabel Plate Reader (Perkin Elmer; product number 2104-0010). The raw counts from the experiment were analyzed using Accelrys® Assay Explorer v3.3.
Z′ greater than 0.5 was used as passing quality control criteria for the plates. The Z′ is defined as:
1−[3*SDPositive Control+3*SDNegative Control/Absolute(MeanPositive Control−MeanNegative Control)]
The % activity measured at each of the 8 test concentrations of the test compound added either without or with a co-corrector (2 μM or 3 μM (GI-1 to GIII-36) of 3-[(2R,4R)-4-({[1-(2,2-difluoro-1,3-benzodioxol-5-yl)cyclopropyl]carbonyl}amino)-7-methoxy-3,4-dihydro-2H-chromen-2-yl]benzoic acid) was normalized to the on-plate positive control using the following formulae:
% activity (Test compound without co-corrector)=[(test compound without co-corrector response−DMSO response)/(positive control response−DMSO response)]*100
% activity (Test compound with co-corrector)=[(test compound with co-corrector response−DMSO response)/(positive control response−DMSO response)]*100
The maximum % activity achieved for the test compound either without or with a co-corrector at any tested concentration is presented in Table 3 along with the respective EC50's calculated using the following general sigmoidal curve with variable Hill slope equation (described as Model 42 in the Accelrys® Assay Explorer v3.3 software):
General sigmoidal curve with concentration, response, top, bottom, EC50 and Hill slope. This model describes a sigmoidal curve with an adjustable baseline, a. The equation can be used to fit curves where response is either increasing or decreasing with respect to the independent variable, “x”.

[1] = with co-corrector 2 μM, read-out: EC50 (with co-corrector)
[2] = without co-corrector, read-out: EC50 (without co-corrector)

Row | SMILES | Emax (% Dual) (F508del/F508del CFTR) | EC50 (F508del/F508del CFTR) | EC50 (F508delCFTR; [1]) | Maximum % activity (with co-corrector) (F508delCFTR; with co-corrector 2 μM) | EC50 (F508delCFTR; [2]) | Emax (F508delCFTR; without co-corrector)
1 | CCc1ccc(Oc2cccnc2OC(F)F)c([C@@]2(C(=O)NS(=O)(=O)c3cccc4nc(C)ccc34)CCCO2)c1 [Example 27, (2R)-2-(2-{[2-(difluoromethoxy)pyridin-3-yl]oxy}-5-ethylphenyl)-N-(2-methylquinoline-5-sulfonyl)oxolane-2-carboxamide] | 212 % Dual | 4.6 nM | 650 nM | – | 1470 nM | 709%
2 | CCOc1ccc(CC)cc1[C@@]1(C(=O)NS(=O)(=O)c2cccc3nc(C)ccc23)CCCO1 [Example 9, (2R)-2-(2-ethoxy-5-ethylphenyl)-N-(2-methylquinoline-5-sulfonyl)oxolane-2-carboxamide] | 256 % Dual | 33.7 nM | 840 nM | – | 1650 nM | 865%
3 | COc1ccc(C)cc1[C@@]1(C(=O)NS(=O)(=O)c2cccc3nc(C)ccc23)CC2(CC2)CO1 [Example 15, (6R)-6-(2-methoxy-5-methylphenyl)-N-(2-methylquinoline-5-sulfonyl)-5-oxaspiro[2.4]heptane-6-carboxamide] | 178 % Dual | 123 nM | 1010 nM | 708% | 1510 nM | 307%
4 | CCc1ccc(Oc2cccnc2OC)c(C2(C(=O)NS(=O)(=O)c3cccc4nc(C)ccc34)CCCO2)c1 (stereo not drawn) [Example 18, 2-{5-ethyl-2-[(2-methoxypyridin-3-yl)oxy]phenyl}-N-(2-methylquinoline-5-sulfonyl)oxolane-2-carboxamide] | 152 % Dual | > 800 nM | – | – | – | –
5 | CCc1ccc(Oc2ccccc2)c(C2(C(=O)NS(=O)(=O)c3cccc4nc(C)ccc34)CCCO2)c1 (stereo not drawn) [Example 17, 2-(5-ethyl-2-phenoxyphenyl)-N-(2-methylquinoline-5-sulfonyl)oxolane-2-carboxamide] | 229 % Dual | 11.5 nM | 1560 nM | – | 2660 nM | 931%

Next, values leading:

Row | Emax (% Dual) (F508del/F508del CFTR) | EC50 (F508del/F508del CFTR) | EC50 (F508delCFTR; [1]) | Maximum % activity (with co-corrector) (F508delCFTR; with co-corrector 2 μM) | EC50 (F508delCFTR; [2]) | Emax (F508delCFTR; without co-corrector) | SMILES
6 | 305 % Dual | 38.3 nM | 3210 nM | 573% | 3630 nM | 217% | COc1ccc(C)cc1[C@]1(C(=O)NS(=O)(=O)c2cccc3nc(C)ccc23)C[C@H](c2ccccc2)CO1 [Example 37, (2S,4R)-2-(2-methoxy-5-methylphenyl)-N-(2-methylquinoline-5-sulfonyl)-4-phenyloxolane-2-carboxamide]
7 | 229 % Dual | 36.3 nM | 440 nM | 911% | 610 nM | 386% | COc1ccc([C@H]2CO[C@@](C(=O)NS(=O)(=O)c3cccc4nc(C)ccc34)(c3cc(C)ccc3OC)C2)cc1 [Example 45, (2R,4S)-2-(2-methoxy-5-methylphenyl)-4-(4-methoxyphenyl)-N-(2-methylquinoline-5-sulfonyl)oxolane-2-carboxamide]
8 | 263 % Dual | 20.8 nM | – | – | – | – | COc1ccc(C)cc1[C@@]1(C(=O)NS(=O)(=O)c2cccc3nc(C)ccc23)C[C@@H](c2ccccc2)CO1 [Example 32, (2R,4S)-2-(2-methoxy-5-methylphenyl)-N-(2-methylquinoline-5-sulfonyl)-4-phenyloxolane-2-carboxamide]
9 | 284 % Dual | 34.6 nM | – | – | – | – | COc1ccc(C)cc1[C@]1(C(=O)NS(=O)(=O)c2cccc3nc(N)ccc23)CC(C)(C)CO1 [Example 34, (2S)—N-(2-aminoquinoline-5-sulfonyl)-2-(2-methoxy-5-methylphenyl)-4,4-dimethyloxolane-2-carboxamide]
10 | 264 % Dual | 20.1 nM | 1630 nM | – | 2300 nM | 756% | COc1ccc(C)cc1[C@@]1(C(=O)NS(=O)(=O)c2cccc3nc(C)ccc23)C[C@H](c2ccccc2)CO1 [Example 33, (2R,4R)-2-(2-methoxy-5-methylphenyl)-N-(2-methylquinoline-5-sulfonyl)-4-phenyloxolane-2-carboxamide]
11 | 216 % Dual | 59.9 nM | – | – | – | – | COc1cccc([C@H]2CO[C@@](C(=O)NS(=O)(=O)c3cccc4nc(C)ccc34)(c3cc(C)ccc3OC)C2)c1 [Example 43, (2R,4S)-2-(2-methoxy-5-methylphenyl)-4-(3-methoxyphenyl)-N-(2-methylquinoline-5-sulfonyl)oxolane-2-carboxamide]
12 | 248 % Dual | 443 nM | – | – | – | – | COc1ccc(C)cc1[C@@]1(C(=O)NS(=O)(=O)c2cccc3nc(N)ccc23)CC(C)(C)CO1 [Example 35, (2R)—N-(2-aminoquinoline-5-sulfonyl)-2-(2-methoxy-5-methylphenyl)-4,4-dimethyloxolane-2-carboxamide]
